Laboratory results as given in patent publication US5314913A, “4- or 5-(substituted sulfonyl)methyl-3(2H)-furanones” (American Home Products Corporation, priority 1992, dated 1994).

Tested on: cholesterol absorption
Experiment: Cholesterol absorption in normal rats (oral [14C] cholesterol, serum radioactivity)
Assay type: in vivo
Settings: 100 mg/kg, serum radioactivity at 6 hr
Description: Cholesterol absorption was measured in normal rats following simultaneous oral doses of the test compounds and radioactive cholesterol according to the method of Cayen and Dvornik except that [^14 C] cholesterol in propylene glycol and olive oil (vehicle for test compound) were used. Serum radioactivity was measured at 6 hr [Cayen, M. N. and Dvornik, D., J. Lipid Res., 20, 162 (1979)].

| Compound | decrease in cholesterol absorption [%] |
| --- | --- |
| CC1(C)OC=C(CS(=O)(=O)c2ccccc2)C1=O [Example 1, 2,2-Dimethyl-4-(phenylsulfonyl)methyl-3(2H)-furanone] | 79 |

Same assay, conditions: 250 mg/kg, serum radioactivity at 6 hr

| Compound | decrease in cholesterol absorption [%] |
| --- | --- |
| CC1(C)OC(CS(=O)(=O)c2ccccc2)=CC1=O [Example 7, 2,2-Dimethyl-5-(phenylsulfonyl)methyl-3(2H)-furanone] | 58 |
| CC1(c2ccccc2)OC(CS(=O)(=O)c2ccccc2)=CC1=O (stereo not drawn) [Example 10, 2-Methyl-2-phenyl-5-(phenylsulfonyl)methyl-3(2H)-furanone] | 35 |

Tested on: gastric mucosal lesions produced by ethanol
Experiment: Ethanol induced cytotoxicity in rats (gastric mucosal lesions)
Assay type: in vivo, Male Sprague-Dawley rats
Settings: Rattus norvegicus; 10 mg/kg, oral, 1 hour prior to ethanol; read-out: % Inhibition (of lesion formation)
Description: The purpose of this assay is to evaluate the effectiveness of the compounds of the present invention in preventing the formation of gastric mucosal lesions produced by ethanol. The assay is based on A. Robert, et al: Gastroenterology, 77: 433-443, 1979.
Male Sprague-Dawley rats weighing between 120-150 grams were fasted for 24 hours prior to the experiment (water ad libitum). At least two hours before dosing, the animals were placed in individual cages with wire grid bottoms and denied access to water.
Ethanol was administered orally at 1 mL per animal. The compounds of the present invention were dissolved in water or suspended in water with 0.5% carboxymethylcullulose and administered orally at a dose based on an appropriate standard giving ED50 to ED75 response of cytoprotective activity.
The rats were randomly divided into groups of equal number, ordinarily 10 to a group. The rats were weighed and the individual weights were recorded. Exactly 1 hour prior to the administration of ethanol, the screening group was treated with the compounds of the present invention, and the control group with the vehicle. One hour after administering the ethanol the animals were sacrificed by cervical dislocation. The stomachs were removed, cut along the greater curvature and cleansed of all debris with tap water. The stomachs were set aside and kept moist with saline until the lesions were scored.
Macroscopic lesions on the gastric mucosa were numerically graded. The final grade assigned a stomach was the sum of all the grades.
Streaks longer than 6 mm are graded in multiples of 2 mm.
The degree of cytotoxicity occurring in each group is represented as the mean± S.E.M.
The mean of each treatment group was compared to the control group and expressed as the % inhibition of lesion formation.

| Compound | inhibition in vivo at 10 mg/kg [%] |
| --- | --- |
| CC1(c2ccc(F)cc2)OC=C(CS(=O)(=O)C(C)(C)C)C1=O (stereo not drawn) [Example 18, 4-[(1,1-Dimethylethyl)sulfonyl]methyl-2-(4-fluorophenyl)-2-methyl-3(2H)-furanone] | 80 |
| CC1(c2ccc(Cl)cc2)OC=C(CS(=O)(=O)C(C)(C)C)C1=O (stereo not drawn) [Example 19, 4-[(1,1-Dimethylethyl)sulfonyl]methyl-2-(4-chlorophenyl)-2-methyl-3(2H)-furanone] | 45 |

Same assay, conditions: Rattus norvegicus; 25 mg/kg, oral, 1 hour prior to ethanol; read-out: % Inhibition (of lesion formation)

| Compound | inhibition in vivo at 25 mg/kg [%] |
| --- | --- |
| CC1(C)OC(CS(=O)(=O)c2ccc(F)cc2)=CC1=O [Example 12, 5-[(4-Fluorophenyl)sulfonyl]methyl-2,2-dimethyl-3(2H)-furanone] | 6 |
| CC1(C)OC=C(CS(=O)(=O)c2ccc(C(C)(C)C)cc2)C1=O [Example 16, 2,2-Dimethyl-4-[[4-(1,1-dimethylethyl)phenyl]sulfonyl]methyl-3(2H)-furanone] | 30 |
| CC1(C)OC(CS(=O)(=O)c2ccc(C(C)(C)C)cc2)=CC1=O [Example 14, 2,2-Dimethyl-5-[[4-(1,1-dimethylethyl)phenyl]sulfonyl]methyl-3(2H)-furanone] | 43 |
| CC1(C)OC=C(CS(=O)(=O)c2ccc(F)cc2)C1=O [Example 15, 4-[(4-Fluorophenyl)sulfonyl]methyl-2,2-dimethyl-3(2H)-furanone] | 42 |
| CC1(C)OC(CS(C)(=O)=O)=CC1=O [Example 13, 2,2-Dimethyl-5-(methylsulfonyl)methyl-3(2H)-furanone] | 54 |
| CC1(C)OC=C(CS(=O)(=O)C(C)(C)C)C1=O [Example 17, 4-[(1,1-Dimethylethyl)sulfonyl]methyl-2,2-dimethyl-3(2H)-furanone] | 87 |
| CC1(c2ccccc2)OC=C(CS(=O)(=O)C(C)(C)C)C1=O (stereo not drawn) [Example 20, 4-[(1,1-Dimethylethyl)sulfonyl]methyl-2-methyl-2-phenyl-3(2H)-furanone] | 76 |
| CC1(C)OC(CS(=O)(=O)c2ccc(Cl)cc2)=CC1=O [Example 11, 5-[(4-Chlorophenyl)sulfonyl]methyl-2,2-dimethyl-3(2H)-furanone] | 44 |

Tested on: blood glucose levels in diabetic (db/db) mice
Experiment: Blood glucose lowering in diabetic db/db mice
Assay type: in vivo, db/db (C57BL/KsJ) mouse
Settings: 100 (mg/kg), p.o. by gavage, 4 doses, difference between mean percent change of vehicle and drug treated group
Description: The animals are obese, glucose intolerant and have fasting hyperglycemia which is sometimes accompanied by a paradoxical hyperinsulinemia.
On the morning of Day 1, 12-15 mice [male db/db (C57BLKsJ), Jackson Laboratories, 2 to 7 months of age and body weight 35 to 60 g] were fasted for 4 hours, weighed and a baseline blood sample was collected from the tail-tip of each mouse without anesthesia, placed directly into a fluoride-containing tube, mixed and maintained on ice. Food was then returned to the mice. The plasma was separated and levels of glucose in plasma determined by the Abbott VP Analyzer. Because of the variable plasma glucose levels of the db/db mice, the mice were randomly assigned into 3-5 groups (4-5 mice per group) of equivalent mean plasma glucose levels:
On the afternoon of Days 1, 2 and 3 the vehicle, control or test drugs were administered (p.o.) to the ad libitum fed mice. The positive control, ciglitazone [(±)-5-[4-[(1-methylcyclohexyl]benzyl]-thiazolidine-2,4-dione] see Fujita et al. Diabetes, 32, 804 (1983), was given by gavage at a dose of 100 mg/kg/day. The test compounds were given by gavage at a dose of 100 mg/kg/day. The fourth and final dose was administered on the morning of day 4, after the mice had been fasted for 18 h. A blood sample was collected immediately preceeding the last dose, followed by samples collected at 90 and 120 min after drug administration. Insulin is immediately administered to each mouse after the 120 min sample. Serial blood samples were collected at 45 and 120 min after administration. The plasma was separated and the levels of glucose in plasma determined by the Abbot VP analyzer.
Analysis of variance followed by Dunnett's multiple comparison (one-sided) was used to estimate the degree of statistical significance of the difference between the vehicle control group and the individual drug-treated groups. A drug was considered active, at the specific dose administered, if the difference of the plasma glucose level has a p<0.10.
The actual difference between the mean percent change of blood glucose levels of the vehicle and the drug treated group is reported in Table 1.

| Compound | Blood Glucose Levels % Change from Vehicle [%] |
| --- | --- |
| N-[[(4,5-Dihydro-5,5-dimethyl-4-oxo-3-furanyl)methyl]sulfonyl]phenylacetamide [Example 5] | -23 |

Same assay, conditions: Mus musculus, po, p.o. by gavage, 4 doses, difference between mean percent change of vehicle and drug treated group, read-out: Blood Glucose Levels % Change from Vehicle

| Compound | change in vivo at 100 mg/kg [%] |
| --- | --- |
| CC1(C)OC=C(CS(=O)(=O)c2cccc3ccccc23)C1=O [Example 2, 2,2-Dimethyl-4-[(1-naphthalenyl)sulfonyl]methyl-3(2H)-furanone] | -21 |
| CC1(C)OC(C2(S(=O)(=O)c3ccccc3)CCCC2)=CC1=O [Example 9, 2,2-Dimethyl-5-[1-(phenylsulfonyl)-1-cyclopentyl]-3(2H)-furanone] | -25 |
| CC1(C)OC(C(C)(C)S(=O)(=O)c2ccccc2)=CC1=O [Example 8, 2,2-Dimethyl-5-[1-methyl-1-(phenylsulfonyl)ethyl]-3(2H)-furanone] | -42 |
| CC1(C)OC(CS(=O)(=O)c2ccccc2)=CC1=O [Example 7, 2,2-Dimethyl-5-(phenylsulfonyl)methyl-3(2H)-furanone] | -38 |
| O=C1C(CS(=O)(=O)c2ccccc2)=COC12CCCCC2 [Example 6] | -25 |
| CC1(C)OC=C(CS(=O)(=O)c2ccccc2)C1=O [Example 1, 2,2-Dimethyl-4-(phenylsulfonyl)methyl-3(2H)-furanone] | -30 |
| CC1(C)OC=C(CS(=O)(=O)c2ccc([N+](=O)[O-])cc2)C1=O [Example 4, 2,2-Dimethyl-4-[(4-nitrophenyl)sulfonyl]methyl-3(2H)-furanone] | -30 |
| CC1(COc2ccc(CC3SC(=O)NC3=O)cc2)CCCCC1 (racemic) [Ciglitazaone, (±)-5-[4-[(1-methylcyclohexyl]benzyl]-thiazolidine-2,4-dione, reference compound] | -50 to -24 |
| CC1(c2ccccc2)OC(CS(=O)(=O)c2ccccc2)=CC1=O (stereo not drawn) [Example 10, 2-Methyl-2-phenyl-5-(phenylsulfonyl)methyl-3(2H)-furanone] | -19 |
| COc1ccccc1S(=O)(=O)CC1=COC(C)(C)C1=O [Example 3, 4-[(2-Methoxyphenyl)sulfonyl]methyl-2,2-dimethyl-3(2H)-furanone] | -21 |
